Consider 20 molecules from PubChem BioAssay AID256 (DTP/NCI, 2004).

“And” between values parts separate entries of the source, which are not always exact repeats. Identical values can stand only once. Toxic doses and inconclusive results are not listed.

This assay relates to CD2F1 mice, L1210 leukemia ip, survival T/C. Briefly: NCI In Vivo Anticancer Drug Screen. Data for tumor model L1210 Leukemia (intraperitoneal) in CD2F1 (CDF1) mice. Particulars: higher = longer survival. In a few lines: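 Implant tumor; dose compound or vehicle; measure endpoint in both groups; report treated divided by control.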
The mark [1] stands for this setting: endpoint: mean survival time, dose: 100.0 mg/kg/injection, schedule: Q04DX003 (ip), vehicle: saline with Tween-80.
Setting [2] is: endpoint: mean survival time, dose: 200.0 mg/kg/injection, schedule: Q04DX003 (ip), vehicle: saline with Tween-80.
Where [3] appears, read: endpoint: mean survival time, dose: 400.0 mg/kg/injection, schedule: Q04DX003 (ip), vehicle: saline with Tween-80.
[4] abbreviates: endpoint: mean survival time, dose: 100.0 mg/kg/injection, schedule: Q01DX001 (ip), vehicle: saline with Tween-80.
Setting [5] is: endpoint: mean survival time, dose: 200.0 mg/kg/injection, schedule: Q01DX001 (ip), vehicle: saline with Tween-80.
Setting [6] is: endpoint: mean survival time, dose: 50.0 mg/kg/injection, schedule: Q01DX001 (ip), vehicle: saline with Tween-80.
The mark [7] stands for this setting: endpoint: mean survival time, dose: 100.0 mg/kg/injection, schedule: Q04DX002 (ip), vehicle: saline with Tween-80.
The mark [8] stands for this setting: endpoint: mean survival time, dose: 200.0 mg/kg/injection, schedule: Q04DX002 (ip), vehicle: saline with Tween-80.
Where [9] appears, read: endpoint: mean survival time, dose: 400.0 mg/kg/injection, schedule: Q04DX002 (ip), vehicle: saline with Tween-80.

`CCCCNC(=O)C1CC2c3cccc4c3C(CN4)CC2N(C)C1` (centres undefined): the T/C is 94 % of control (endpoint: mean survival time, dose: 50.0 mg/kg/injection, schedule: Q04DX003 (ip), vehicle: saline with Tween-80) and 88 % of control under setting [1].
For the molecule `NC(=O)N/N=C/c1ccc([N+](=O)[O-])s1`, the T/C is, setting by setting: under setting [1], 97 % of control; under setting [2], 99 % of control; under setting [3], 106 % of control.
Regarding `CC(C)CCCCN(CCCCC(C)C)CC(O)c1cc2c(c3ccccc13)CCCC2` (centres undefined), the T/C is, setting by setting: under setting [4], 94 % of control; under setting [5], 97 % of control; (endpoint: mean survival time, dose: 400.0 mg/kg/injection, schedule: Q01DX001 (ip), vehicle: saline with Tween-80) 102 % of control.
In the case of `OC12CC3CC(CC(C3)C1)C2`, the T/C under setting [6] is 104 % of control, the T/C under setting [4] was 116 % of control and the T/C under setting [5] was 98 % of control.
With `C(=C1c2ccccc2-c2ccccc21)c1cccnc1`, the T/C (endpoint: mean survival time, dose: 100.0 mg/kg/injection, schedule: Q01DX009 (ip), vehicle: saline with Tween-80) is 98 % of control; the T/C under setting [1] was 101 % of control; the T/C (endpoint: mean survival time, dose: 200.0 mg/kg/injection, schedule: Q01DX009 (ip), vehicle: saline with Tween-80) is 102 % of control; the T/C under setting [2] is 101 % of control; the T/C (endpoint: mean survival time, dose: 400.0 mg/kg/injection, schedule: Q01DX009 (ip), vehicle: saline with Tween-80) was 88 % of control; the T/C under setting [3] is 95 % of control.
With `CN(N=O)C(N)=O`, the T/C was 112 % of control (endpoint: mean survival time, dose: 5.0 mg/kg/injection, schedule: Q03DX003 (ip), vehicle: saline); 117 % of control (endpoint: mean survival time, dose: 5.0 mg/kg/injection, schedule: Q04DX003 (ip), vehicle: saline); 166 % of control (endpoint: mean survival time, dose: 10.0 mg/kg/injection, schedule: Q01DX007 (ip), vehicle: saline); 175 % of control (endpoint: mean survival time, dose: 10.0 mg/kg/injection, schedule: Q01DX009 (ip), vehicle: saline); 124 % of control (endpoint: mean survival time, dose: 20.0 mg/kg/injection, schedule: Q01DX007 (ip), vehicle: saline); 156 % of control (endpoint: mean survival time, dose: 20.0 mg/kg/injection, schedule: Q03DX003 (ip), vehicle: saline). For the same molecule, the T/C by setting is: (endpoint: median survival time, dose: 12.0 mg/kg/injection, schedule: Q01DX009 (ip), vehicle: saline + alcohol) 172 % of control; (endpoint: median survival time, dose: 14.0 mg/kg/injection, schedule: Q04DX003 (ip), vehicle: saline) 113 % of control; (endpoint: median survival time, dose: 14.0 mg/kg/injection, schedule: Q07DX003 (ip), vehicle: saline + alcohol) 106 % of control; (endpoint: median survival time, dose: 20.0 mg/kg/injection, schedule: Q07DX003 (ip), vehicle: saline + alcohol) 118 % of control; (endpoint: median survival time, dose: 26.0 mg/kg/injection, schedule: Q07DX003 (ip), vehicle: saline + alcohol) 116 % of control; (endpoint: median survival time, dose: 33.0 mg/kg/injection, schedule: Q07DX003 (ip), vehicle: saline + alcohol) 123 % of control. Further, the T/C was 151 % of control (endpoint: median survival time, dose: 36.0 mg/kg/injection, schedule: Q04DX003 (ip), vehicle: saline + alcohol); 160 % of control (endpoint: median survival time, dose: 40.0 mg/kg/injection, schedule: Q04DX003 (ip), vehicle: saline); 107 % of control (endpoint: median survival time, dose: 50.0 mg/kg/injection, schedule: Q01DX009 (ip), vehicle: saline + alcohol); 157 % of control (endpoint: median survival time, dose: 60.0 mg/kg/injection, schedule: Q04DX003 (ip), vehicle: saline + alcohol); 167 % of control (endpoint: median survival time, dose: 67.0 mg/kg/injection, schedule: Q04DX003 (ip), vehicle: saline); 97 % of control (endpoint: median survival time, dose: 100.0 mg/kg/injection, schedule: Q04DX003 (ip), vehicle: saline + alcohol).
As for `CCOC(CNCc1cccc(OC)c1)OCC`, the T/C (endpoint: mean survival time, dose: 100.0 mg/kg/injection, schedule: Q01DX001 (ip), vehicle: saline) was 100 % of control and the T/C (endpoint: mean survival time, dose: 200.0 mg/kg/injection, schedule: Q01DX001 (ip), vehicle: saline) is 100 % of control.
For the molecule `CC(=O)O[C@@H]1C[C@H](C)CC[C@H]1C(C)C`, the T/C under setting [1] is 98 % of control and the T/C under setting [2] is 89 % of control.
On to `CCOCCNc1ccc([N+](=O)[O-])cc1[N+](=O)[O-]`, for which the T/C was 91 % of control under setting [7], 91 % of control under setting [8] and 98 % of control under setting [9].
On to `N#CN(Cc1ccc(Cl)cc1Cl)C(=O)OCOc1ccc(Cl)cc1`, for which the T/C by setting is: under setting [1], 88 % of control; under setting [2], 89 % of control; under setting [3], 96 % of control.
As to `CCOC(=O)C(Cc1c[nH]c2ccccc12)(NC(C)=O)C(=O)OCC`, the T/C under setting [1] is 98 % of control, the T/C under setting [2] was 96 % of control and the T/C under setting [3] was 104 % of control.
As for `O=C1C=C(Nc2ccc([N+](=O)[O-])cc2)c2ccccc2C1=O`, the T/C was 95 % of control (endpoint: mean survival time, dose: 75.0 mg/kg/injection, schedule: Q01DX001 (ip), vehicle: saline) and 91 % of control (endpoint: mean survival time, dose: 150.0 mg/kg/injection, schedule: Q01DX001 (ip), vehicle: saline).
Regarding `CCCCCCCCC(=O)OCC1OC(n2cnc3c(N)nc(Cl)nc32)CC1O` (centres undefined), the T/C (endpoint: median survival time, dose: 40.0 mg/kg/injection, schedule: Q01DX009 (ip), vehicle: saline with Tween-80) was 161 % of control; the T/C (endpoint: median survival time, dose: 50.0 mg/kg/injection, schedule: Q01DX009 (ip), vehicle: saline with Tween-80) was 344 % of control; the T/C (endpoint: median survival time, dose: 60.0 mg/kg/injection, schedule: Q01DX009 (ip), vehicle: saline with Tween-80) was 177 % of control; the T/C (endpoint: median survival time, dose: 80.0 mg/kg/injection, schedule: Q01DX009 (ip), vehicle: saline with Tween-80) is 97 % of control; the T/C (endpoint: median survival time, dose: 100.0 mg/kg/injection, schedule: Q01DX009 (ip), vehicle: saline with Tween-80) was 102 % of control.
For the molecule `O=C(c1ccccc1)C1(O)CCCCC1`, the T/C runs as follows: (endpoint: mean survival time, dose: 50.0 mg/kg/injection, schedule: Q01DX009 (ip), vehicle: saline sonified) 97 % of control; (endpoint: mean survival time, dose: 100.0 mg/kg/injection, schedule: Q01DX009 (ip), vehicle: saline sonified) 105 % of control; (endpoint: mean survival time, dose: 200.0 mg/kg/injection, schedule: Q01DX009 (ip), vehicle: saline sonified) 97 % of control.
On to `Nc1ccc(/C=C/C(=O)Nc2ccc(S(=O)(=O)F)cc2)cc1`, for which the T/C by setting is: under setting [4], 98 % of control; under setting [5], 95 % of control.
Consider `CN(C)c1ccc(NC(=S)Nc2ccc(N(C)C)cc2)cc1`, for which the T/C runs as follows: (endpoint: mean survival time, dose: 25.0 mg/kg/injection, schedule: Q01DX001 (ip), vehicle: saline with Tween-80) 97 % of control; under setting [6], 102 % of control; under setting [4], 94 % of control.
For `Nc1ccc(S(=O)(=O)c2ccc(Nc3ccccc3)c(N)c2)cc1`, the T/C by setting is: under setting [7], 97 % of control; under setting [8], 94 % of control; under setting [9], 97 % of control.
With `CC(C)(Cl)S(=O)c1ccccc1` (centres undefined), the T/C under setting [1] was 93 % of control, the T/C under setting [2] was 93 % of control and the T/C under setting [3] was 95 % of control.
As to `NC(=S)NN=C1CCCCC1`, the T/C was 98 % of control (endpoint: mean survival time, dose: 6.25 mg/kg/injection, schedule: Q01DX009 (ip), vehicle: saline with Tween-80); 96 % of control (endpoint: mean survival time, dose: 12.5 mg/kg/injection, schedule: Q01DX009 (ip), vehicle: saline with Tween-80); 98 % of control (endpoint: mean survival time, dose: 25.0 mg/kg/injection, schedule: Q01DX009 (ip), vehicle: saline with Tween-80).
For the molecule `CCOC(=O)C(CC(C)C)NC(=O)C(N)Cc1ccc(N(CCCl)CCCl)cc1` (centres undefined), the T/C runs as follows: (endpoint: mean survival time, dose: 1.25 mg/kg/injection, schedule: Q01DX009 (ip), vehicle: water) 106 % of control; (endpoint: mean survival time, dose: 2.5 mg/kg/injection, schedule: Q01DX009 (ip), vehicle: water) 115 % of control and 119 % of control; (endpoint: mean survival time, dose: 10.0 mg/kg/injection, schedule: Q01DX009 (ip), vehicle: water) 169 % of control; (endpoint: mean survival time, dose: 20.0 mg/kg/injection, schedule: Q01DX009 (ip), vehicle: water) 114 % of control; (endpoint: median survival time, dose: 3.6 mg/kg/injection, schedule: Q01DX009 (ip), vehicle: water) 118 % of control; (endpoint: median survival time, dose: 16.67 mg/kg/injection, schedule: Q01DX009 (ip), vehicle: water) 175 % of control. In addition, under “endpoint: median survival time, dose: 27.78 mg/kg/injection, schedule: Q01DX009 (ip), vehicle: water”, the T/C was 118 % of control.
